{"source": "patent US11116799B2", "about": "“Generation of uniform hepatocytes from human embryonic stem cells by inhibiting TGF-beta and methods of maintaining hepatic cultures” (Wisconsin Alumni Research Foundation, priority 2016, dated 2021)", "key": {"HepG2 cells [1]": {"system": "HepG2 cells", "conditions": "HepG2 treated 72 hours, 10 uM APAP for 1 hour", "source_text": "Samples for LC/MS/MS analysis were processed by solid-phase extraction, and calibrant curves (7 points) for all compounds were generated by spiking standards (Sigma) in E6 media and processed in parallel with samples. An internal standard of deuterated naproxen was included for all analytes. Samples were run on a 0.2×100 mm Cortecs C18 column (Waters Corporation, Milford Mass.) using a Waters Acquity UPLC system coupled to an AB/Sciex Q-Trap 5500 hybrid triple quadrupole instrument (Framingham Mass.). Analytes were detected using multiple-reaction-monitoring with three transitions for each compound being monitored. Each sample was analyzed in triplicate with blanks between each sample analysis. Quantitation was based on area under the curve of the analyte relative to the internal standard and was modeled with a quadratic fit with 1/× weighting using the MultiQuant software (Sciex, Framingham Mass.). […] Average calculated concentrations for each analyte are reported. […] Background was determined by measuring metabolites in media incubated with acetaminophen only for 1 hour and any samples below background were considered nil.\n(§1) To test whether the upregulation of metabolic genes at the mRNA level translated into functional metabolic improvement, acetaminophen (APAP) metabolism was assessed by LC/MS/MS."}, "HepG2 cells [2]": {"system": "HepG2 cells", "protocol": "Both types of cells were treated with a vehicle or small molecule for 72 hours and genes were quantified using RNA-Seq.\n(§2) Total RNA (including microRNA) from all cells, which were not mentioned otherwise, were isolated using RNAeasy Plus Kit […] following manufacturers protocol. RNA-Seq was performed by LM-Seq (Illumina). MicroRNAs were sequenced using Illumina's small RNA sequencing kit. Expression of let-7 and U6 snoRNA were measured by quantitative PCR using ABI's kit. Let-7c expression levels were normalized by U6 snoRNA expression (RQ or relative quantity values, error bars representing standard error, RQ min and RQ max).\n(§3) Total RNA were isolated using RNAeasy Plus Kit (Qiagen) following manufacturers protocol and qualified with the Life Technologies Qubit fluorometer and Agilent Bioanalyzer. […] Final indexed cDNA libraries were pooled and sequenced on an Illumina HiSeq 2500. Base-calling and demultiplexing were performed using Casava (v1.8.2). Sequences were filtered and trimmed to remove low quality reads, adapters, and other sequencing artifacts. The remaining reads were aligned to a reference database comprising only RefSeq-validated transcripts (i.e., assigned an “NM_” accession). Mouse samples were aligned to the mm10 assembly, and human samples were aligned to the hg19 assembly. […] Reads with more than 200 alignments were excluded from further analysis. […] All RNA-seq results have been deposited at NCBI's GEO under Accession No. GSE94353.\nas §1"}, "[3]": {"system": "ALB-GFP/tdTomato-AFP marker cell line", "conditions": "marker line differentiated with TGFB and NOTCH inhibition in E6, then treated 72 hours", "description": "We next differentiated the ALB-GFP/tdTomato-AFP marker cell line to hepatocytes with TGFB and NOTCH inhibition in defined E6 medium."}, "CYP2C9": {"system": "CYP2C9", "conditions": "HepG2, treated 72 hours", "protocol": "(§4) CYP2C9 and 3A4 metabolism were measured using CYP450 Glo assay (Promega). In short, substrates were added to the media and incubated for 72 hours and the amount of metabolites generated were measured by adding the detection reagent and quantifying the luminescence in a Tecan® plate reader. Background was measured by incubating the substrates for 72 hours in the same media without cells. Cell counting for proliferation assay was carried out by dye exclusion in an automated cell counter (ThermoFisher).\nCYP2C9 and 3A4 metabolism were measured using CYP450 Glo assay (Promega). Substrates were added to the media and incubated for 72 hours and the amount of metabolite generated were measured by adding the detection reagent and quantifying the luminescence in a Tecan plate reader. Background was measured by incubating the substrates for 72 hours in the same media without cells."}, "[4]": {"system": "primary mouse hepatocytes", "test": "RNA-Seq gene expression in primary mouse hepatocytes treated with kinase inhibitors", "conditions": "10 μM, 72 hours", "source_text": "The next step was to determine if the PI3/Akt and MAPK pathways are involved in maintenance of hepatocyte maturation. We investigated whether small molecule inhibition of these pathways would mimic let-7's action and reduce the loss of mature function of hepatocytes in culture after removal from their microenvironment. […] Then, expression of the top ten important metabolic enzymes (CYPs, UGTs and transporters) by RNA-Seq with uncultured fresh hepatocytes and control vehicle hepatocytes treated for 72 hours was compared.\nHepatocytes from 6 black mice livers were isolated by perfusion following standard protocol and cultured on Matrigel coated plates in hepatocyte growth medium (Promocell). Whole developing livers from 6 black mice were used for RNA isolation with Trizol for let-7c measurements.\nas §2\nMultiple batches of cryopreserved induction qualified human hepatocytes (each batch being from one donor) were purchased from Life Technologies and cultured on Matrigel coated plates in hepatocyte growth medium (PromoCell). For dedifferentiation studies, hepatocytes from batches Hu4260, Hu8135, Hu4279 and Hu8137 were used after mixing equal number of live cells. For small molecule treatments, batch Hu4260 was used. Mouse hepatocytes were isolated from Black 6 mice livers by perfusion following standard protocol and cultured on Matrigel coated plates in hepatocyte growth medium (Promocell).\nas §3\nThe inventors next investigated whether the MAPK and PI3/Akt pathways contributed to the dedifferentiation of hepatocytes. […] Rapamycin was included as a control, which is an inhibitor of the mTOR pathway, a serine/threonine kinase involved in cell signaling not identified as a key pathway in our analysis."}, "[5]": {"system": "primary human hepatocytes (PHHs)", "test": "RNA-Seq gene expression in MAPK inhibitor treated primary human hepatocytes", "type": "cell-based", "protocol": "[…]. […] […].\nFor small RNA-Seq profiling, hepatocytes from Hu8082 were used; for de-differentiation time course and let-7c transduction, hepatocytes from Hu4260, Hu8135, Hu4279 and Hu8137 were used. For both experiments, cells from all 4 donors were mixed in equal numbers after assessment of viability. For small molecule treatments, batch Hu4260 was used.\nRNA-Seq was performed by LM-Seq (Illumina).\nFor small molecule treatments, batch Hu4260 was used.\n. To ascertain that the increase in metabolic enzymes took place through specific MAPK inhibition, PHHs were treated with a second MAPK inhibitor, PD0325901, for 72 hours, followed by RNA-Seq analysis (Supplementary Table 4). […]."}, "HepG2 cells [6]": {"system": "HepG2 cells", "test": "HepG2 viability / cell growth (cell counting by dye exclusion)", "type": "cell-based, human", "conditions": "HepG2, 72 hours, compared to vehicle control", "protocol": "as §4"}, "[7]": {"conditions": "primary human hepatocytes, treated 72 hours"}}, "note": "“And” between values parts separate entries of the source, which are not always exact repeats. Identical values can stand only once. “Also recorded” adds a separate entry of the source.", "data": [{"compound": "N#CC(=C(/N)Sc1ccccc1N)/C(C#N)=C(\\N)Sc1ccccc1N", "note": "[U0126]", "values": [{"measurement": "formation of APAP-glucuronide", "setting": "HepG2 cells [1]", "value": "induced the formation"}, {"measurement": "formation of APAP-glutathione", "setting": "HepG2 cells [1]", "value": "induced the formation"}, {"measurement": "formation of APAP-sulphate", "setting": "HepG2 cells [1]", "value": "increased formation"}, {"measurement": "rate of formation of all APAP metabolites versus PHHs", "setting": "HepG2 cells [1]", "value": "comparable rate to mature adult PHHs"}, {"measurement": "downregulation of fetal gene AFP compared with untreated control", "setting": "HepG2 cells [2]; HepG2, 72 hours", "value": "over 3 orders of magnitude"}, {"measurement": "AFP gene expression", "setting": "HepG2 cells [2]; HepG2, treated 72 hours", "value": 4.74, "unit": "transcripts per million"}, {"measurement": "ALB gene expression", "setting": "HepG2 cells [2]; HepG2, treated 72 hours", "value": 2083.6, "unit": "transcripts per million"}, {"measurement": "CD81 gene expression", "setting": "HepG2 cells [2]; HepG2, treated 72 hours", "value": 634.68, "unit": "transcripts per million"}, {"measurement": "CYP1A2 gene expression", "setting": "HepG2 cells [2]; HepG2, treated 72 hours", "value": 0.68, "unit": "transcripts per million"}, {"measurement": "CYP1B1 gene expression", "setting": "HepG2 cells [2]; HepG2, treated 72 hours", "value": 3.07, "unit": "transcripts per million"}, {"measurement": "CYP2C9 gene expression", "setting": "HepG2 cells [2]; HepG2, treated 72 hours", "value": 33.45, "unit": "transcripts per million"}, {"measurement": "CYP2D6 gene expression", "setting": "HepG2 cells [2]; HepG2, treated 72 hours", "value": 4.05, "unit": "transcripts per million"}, {"measurement": "CYP2E1 gene expression", "setting": "HepG2 cells [2]; HepG2, treated 72 hours", "value": 14.61, "unit": "transcripts per million"}, {"measurement": "CYP3A4 gene expression", "setting": "HepG2 cells [2]; HepG2, treated 72 hours", "value": 13.37, "unit": "transcripts per million"}, {"measurement": "SLC10A1 gene expression", "setting": "HepG2 cells [2]; HepG2, treated 72 hours", "value": 10.57, "unit": "transcripts per million"}, {"measurement": "SLCO1B1 gene expression", "setting": "HepG2 cells [2]; HepG2, treated 72 hours", "value": 120.17, "unit": "transcripts per million"}, {"measurement": "SLCO1B3 gene expression", "setting": "HepG2 cells [2]; HepG2, treated 72 hours", "value": 18.83, "unit": "transcripts per million"}, {"measurement": "UGT1A1 gene expression", "setting": "HepG2 cells [2]; HepG2, treated 72 hours", "value": 16.61, "unit": "transcripts per million"}, {"measurement": "UGT1A6 gene expression", "setting": "HepG2 cells [2]; HepG2, treated 72 hours", "value": 835.05, "unit": "transcripts per million"}, {"measurement": "UGT1A9 gene expression", "setting": "HepG2 cells [2]; HepG2, treated 72 hours", "value": 99.71, "unit": "transcripts per million"}, {"measurement": "expression of hepatic nuclear receptors (CAR, FXR, LXR, PPAR, PXR, RAR), change >3-fold", "setting": "HepG2 cells [2]; HepG2 cells", "value": "did not significantly change"}, {"measurement": "cells expressing both ALB and AFP", "setting": "[3]", "value": 100, "unit": "%"}, {"measurement": "CYP2C9 activity (luminescent metabolite formation), increase over vehicle control", "setting": "CYP2C9", "value": "> 10 fold and 10 fold"}, {"measurement": "ABCC2 gene expression", "setting": "[4]", "value": 415.86, "unit": "transcripts per million"}, {"measurement": "CYP1A2 gene expression", "setting": "[4]", "value": 1271.98, "unit": "transcripts per million"}, {"measurement": "CYP2C9 gene expression", "setting": "[4]", "value": 2676.68, "unit": "transcripts per million"}, {"measurement": "CYP2E1 gene expression", "setting": "[4]", "value": 217.96, "unit": "transcripts per million"}, {"measurement": "CYP3A11 gene expression", "setting": "[4]", "value": 632.32, "unit": "transcripts per million"}, {"measurement": "CYP3A25 gene expression", "setting": "[4]", "value": 112.18, "unit": "transcripts per million"}, {"measurement": "UGT1A6A gene expression", "setting": "[4]", "value": 232.80, "unit": "transcripts per million"}, {"measurement": "UGT1A9 gene expression", "setting": "[4]", "value": 184.63, "unit": "transcripts per million"}, {"measurement": "UGT1A10 gene expression", "setting": "[4]", "value": 2.44, "unit": "transcripts per million"}, {"measurement": "UGT2B5 gene expression", "setting": "[4]", "value": 995.27, "unit": "transcripts per million"}, {"measurement": "expression of hepatic nuclear receptors (CAR, FXR, LXR, PPAR, PXR, RAR), change >3-fold", "setting": "[5]; PHHs", "value": "did not significantly change"}, {"measurement": "AFP gene expression", "setting": "[5]; [7]", "value": 5.79, "unit": "transcripts per million"}, {"measurement": "ALB gene expression", "setting": "[5]; [7]", "value": 1360.25, "unit": "transcripts per million"}, {"measurement": "CD81 gene expression", "setting": "[5]; [7]", "value": 417.56, "unit": "transcripts per million"}, {"measurement": "CYP1A2 gene expression", "setting": "[5]; [7]", "value": 68.21, "unit": "transcripts per million"}, {"measurement": "CYP1B1 gene expression", "setting": "[5]; [7]", "value": 30.96, "unit": "transcripts per million"}, {"measurement": "CYP2C9 gene expression", "setting": "[5]; [7]", "value": 77.04, "unit": "transcripts per million"}, {"measurement": "CYP2D6 gene expression", "setting": "[5]; [7]", "value": 1.81, "unit": "transcripts per million"}, {"measurement": "CYP2E1 gene expression", "setting": "[5]; [7]", "value": 17.69, "unit": "transcripts per million"}, {"measurement": "CYP3A4 gene expression", "setting": "[5]; [7]", "value": 43.64, "unit": "transcripts per million"}, {"measurement": "SLC10A1 gene expression", "setting": "[5]; [7]", "value": 0.00, "unit": "transcripts per million"}, {"measurement": "SLCO1B1 gene expression", "setting": "[5]; [7]", "value": 153.15, "unit": "transcripts per million"}, {"measurement": "SLCO1B3 gene expression", "setting": "[5]; [7]", "value": 14.65, "unit": "transcripts per million"}, {"measurement": "UGT1A1 gene expression", "setting": "[5]; [7]", "value": 47.57, "unit": "transcripts per million"}, {"measurement": "UGT1A6 gene expression", "setting": "[5]; [7]", "value": 671.53, "unit": "transcripts per million"}, {"measurement": "UGT1A9 gene expression", "setting": "[5]; [7]", "value": 81.41, "unit": "transcripts per million"}, {"measurement": "HepG2 viability / cell growth", "setting": "HepG2 cells [6]", "value": "significant inhibition of cell growth; also recorded: increased cell death and growth arrest"}]}]}
